Calls of active or inactive are those of the source. The rule behind the calls is not given here.
Tests used:
[1] = target: T1, Sodium- and chloride-dependent GABA transporter 1 (Homo sapiens, UniProt P30531); test: Inhibition of human GAT1 transfected in CHO cells assessed as [3H]GABA uptake after 20 mins by liquid scintillation counting analysis; format: cell-based
Target sequence in this assay (P30531 whole entry): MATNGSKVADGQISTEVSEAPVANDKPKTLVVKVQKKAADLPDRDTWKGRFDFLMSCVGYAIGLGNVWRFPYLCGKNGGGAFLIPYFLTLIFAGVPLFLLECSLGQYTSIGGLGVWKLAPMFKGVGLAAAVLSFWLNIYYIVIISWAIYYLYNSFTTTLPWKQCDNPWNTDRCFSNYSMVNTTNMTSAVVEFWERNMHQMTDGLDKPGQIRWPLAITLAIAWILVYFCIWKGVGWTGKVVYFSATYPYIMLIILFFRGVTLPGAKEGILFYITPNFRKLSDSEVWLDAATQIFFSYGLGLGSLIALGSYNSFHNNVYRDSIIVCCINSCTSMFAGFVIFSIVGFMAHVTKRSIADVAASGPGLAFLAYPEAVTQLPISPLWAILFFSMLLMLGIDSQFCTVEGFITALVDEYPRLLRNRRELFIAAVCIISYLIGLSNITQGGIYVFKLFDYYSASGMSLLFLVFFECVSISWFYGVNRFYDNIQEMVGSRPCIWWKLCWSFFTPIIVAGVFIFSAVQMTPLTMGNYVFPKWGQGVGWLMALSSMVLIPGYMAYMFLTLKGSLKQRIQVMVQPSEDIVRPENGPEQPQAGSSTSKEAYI

[2] = target: T2, Sodium- and chloride-dependent GABA transporter 2 (Homo sapiens, UniProt Q9NSD5); test: Inhibition of human GAT2 transfected in CHO cells assessed as [3H]GABA uptake after 20 mins by liquid scintillation counting analysis; format: cell-based
T2 sequence (Q9NSD5 whole entry): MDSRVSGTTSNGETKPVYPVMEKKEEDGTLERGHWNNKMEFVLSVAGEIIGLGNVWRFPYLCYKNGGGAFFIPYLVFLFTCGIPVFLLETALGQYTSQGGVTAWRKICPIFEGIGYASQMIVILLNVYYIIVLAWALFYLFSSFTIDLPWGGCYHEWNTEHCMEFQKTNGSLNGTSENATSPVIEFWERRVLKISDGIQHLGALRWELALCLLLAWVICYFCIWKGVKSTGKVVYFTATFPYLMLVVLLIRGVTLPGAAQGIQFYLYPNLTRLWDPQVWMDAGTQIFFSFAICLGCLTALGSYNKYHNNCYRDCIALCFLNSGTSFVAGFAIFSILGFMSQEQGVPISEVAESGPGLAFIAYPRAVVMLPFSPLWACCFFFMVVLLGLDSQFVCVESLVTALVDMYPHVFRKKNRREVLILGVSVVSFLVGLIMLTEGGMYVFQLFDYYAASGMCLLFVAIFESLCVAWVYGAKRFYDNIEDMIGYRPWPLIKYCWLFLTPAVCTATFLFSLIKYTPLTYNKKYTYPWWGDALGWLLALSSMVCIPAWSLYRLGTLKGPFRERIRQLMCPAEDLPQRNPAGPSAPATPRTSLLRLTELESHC

[3] = target: T3, Sodium- and chloride-dependent GABA transporter 3 (Homo sapiens, UniProt P48066); test: Inhibition of human GAT3 transfected in CHO cells assessed as [3H]GABA uptake after 20 mins by liquid scintillation counting analysis; format: cell-based
T3 sequence (P48066 whole entry): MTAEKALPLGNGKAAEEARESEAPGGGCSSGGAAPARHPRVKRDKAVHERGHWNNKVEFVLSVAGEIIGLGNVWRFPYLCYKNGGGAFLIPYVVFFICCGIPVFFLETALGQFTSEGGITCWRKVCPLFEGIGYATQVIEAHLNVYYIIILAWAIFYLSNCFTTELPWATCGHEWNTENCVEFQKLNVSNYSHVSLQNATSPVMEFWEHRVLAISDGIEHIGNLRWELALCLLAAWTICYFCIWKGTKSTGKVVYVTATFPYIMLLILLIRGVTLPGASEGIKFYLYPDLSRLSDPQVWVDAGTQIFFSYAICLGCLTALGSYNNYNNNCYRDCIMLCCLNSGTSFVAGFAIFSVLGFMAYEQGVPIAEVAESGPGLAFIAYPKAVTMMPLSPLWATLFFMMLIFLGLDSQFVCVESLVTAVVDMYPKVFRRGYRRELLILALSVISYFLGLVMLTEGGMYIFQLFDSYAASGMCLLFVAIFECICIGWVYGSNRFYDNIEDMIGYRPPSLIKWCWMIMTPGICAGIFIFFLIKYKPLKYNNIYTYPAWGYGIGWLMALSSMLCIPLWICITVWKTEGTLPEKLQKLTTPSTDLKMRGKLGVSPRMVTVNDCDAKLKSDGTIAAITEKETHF

[4] = target: T4, Sodium- and chloride-dependent betaine transporter (Homo sapiens, UniProt P48065); test: Inhibition of human BGT1 transfected in CHO cells assessed as [3H]GABA uptake after 20 mins by liquid scintillation counting analysis; format: cell-based
T4 sequence (P48065 whole entry): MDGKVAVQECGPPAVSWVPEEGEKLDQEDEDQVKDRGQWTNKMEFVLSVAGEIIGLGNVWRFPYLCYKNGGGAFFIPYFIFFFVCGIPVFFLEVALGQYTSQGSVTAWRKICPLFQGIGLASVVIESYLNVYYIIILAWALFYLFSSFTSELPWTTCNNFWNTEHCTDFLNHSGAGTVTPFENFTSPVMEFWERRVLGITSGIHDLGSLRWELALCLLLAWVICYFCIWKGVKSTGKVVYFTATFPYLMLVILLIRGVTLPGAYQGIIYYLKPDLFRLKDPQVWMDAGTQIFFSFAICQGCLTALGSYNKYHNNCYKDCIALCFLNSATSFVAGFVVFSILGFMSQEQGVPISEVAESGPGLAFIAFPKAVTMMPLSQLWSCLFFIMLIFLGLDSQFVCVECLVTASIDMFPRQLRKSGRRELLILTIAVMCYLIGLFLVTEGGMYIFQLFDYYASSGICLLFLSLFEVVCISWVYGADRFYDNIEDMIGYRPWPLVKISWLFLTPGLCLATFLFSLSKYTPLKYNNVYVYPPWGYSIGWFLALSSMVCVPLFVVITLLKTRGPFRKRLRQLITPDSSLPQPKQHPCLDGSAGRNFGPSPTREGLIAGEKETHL

[5] = target: T5, Sodium- and chloride-dependent betaine transporter (Homo sapiens) (UniProt P48065); test: Inhibition of human BGT1 transfected in CHO cells assessed as [3H]GABA uptake at 100 uM after 20 mins by liquid scintillation counting analysis; format: cell-based
T5 sequence (whole entry): T4 sequence (P48065 whole entry)

[6] = target: T6, Sodium- and chloride-dependent GABA transporter 3 (Homo sapiens) (UniProt P48066); settings: CHO, 100 uM
T6 sequence (whole entry): T3 sequence (P48066 whole entry)
Description: Inhibition of human GAT3 transfected in CHO cells assessed as [3H]GABA uptake at 100 uM after 20 mins by liquid scintillation counting analysis

[7] = target: T1, Sodium- and chloride-dependent GABA transporter 1; test: Inhibition of human GAT1 transfected in CHO cells assessed as [3H]GABA uptake at 100 uM after 20 mins by liquid scintillation counting analysis; format: cell-based
Target sequence in this assay (P30531 whole entry, looked up): as the sequence (P30531 whole entry) above

[8] = target: T7, Sodium- and chloride-dependent GABA transporter 2 (Homo sapiens) (UniProt Q9NSD5); test: Inhibition of human GAT2 transfected in CHO cells assessed as [3H]GABA uptake at 100 uM after 20 mins by liquid scintillation counting analysis; format: cell-based
T7 sequence (whole entry): T2 sequence (Q9NSD5 whole entry)

Row | SMILES | IC50 [1] [µM] | IC50 [2] [µM] | IC50 [3] [µM] | IC50 [4] [µM] | inhibition [5] | inhibition [6] | inhibition [7] | inhibition [8]
1 | COc1ccc(C(OCCN2CCC[C@H](C(=O)O)C2)(c2ccc(OC)cc2)c2ccc(OC)cc2)cc1 | > 100 | – | – | – | – | – | – | –
2 | NCCC(=O)O [BETA-ALANINE] | – | > 100 | – | – | – | – | – | –
3 | COc1ccccc1C1(O)CCN(CCCn2c3ccccc3c3ccccc32)CC1 | 11.4 | 6.2 | 8.92 | – | – | – | – | –
4 | N[C@H]1C[C@H]1CC(=O)O | > 100 | 36.9 | 13.9 | 5.48 | Active | Active | – | –
5 | N[C@@]12CC[C@H](C(=O)O)[C@@H]1C2 | > 100 | > 100 | 76.3 | 0.59 | 97.6% | 48.2% | 12.2% | 29%
6 | N[C@@]12CC[C@@H](C(=O)O)[C@@H]1C2 | – | – | – | – | 63.9% | inactive | inactive | inactive

From ChEMBL document CHEMBL3351485 (ACS Med Chem Lett, 2014)
